# Values quoted from earlier work as cited in paper PMC8287724, “Reducing Auditory Nerve Excitability by Acute Antagonism of Ca^2+-Permeable AMPA Receptors” (Frontiers in Synaptic Neuroscience, 2021).
# Key:
# GluA2-lacking AMPARs = system: GluA2-lacking AMPARs; set-up: method as in Magazanik et al., 1997; Buldakova et al., 1999; settings: ref Magazanik et al., 1997; Buldakova et al., 1999; read-out: IC50 on cells expressing GluA2-lacking AMPARs; cited from earlier work
# [1] = system: cochlear afferent synapses; set-up: method as in Hu et al., 2020; settings: mouse; ~2.5 days of sustained intracochlear delivery; synaptopathic noise ref Hu et al., 2020; cited from earlier work
structure (smiles),measurement,setting,value
C[N+](C)(C)CCCCCNCC12CC3CC(CC(C3)C1)C2 [IEM-1460],IC50,GluA2-lacking AMPARs,1000 to 3000 nM
same,effect on noise-induced synapse loss and ABR wave-I amplitude,[1],prevented synapse loss and loss of wave-I amplitude
